Experimental data as given in ChEMBL document CHEMBL1681648, “Synthesis and in vitro antibacterial activity of oxazolidine LBM-415 analogs as peptide deformylase inhibitors” (2011).
In brackets after ≈: the same amount, converted by molar mass.

Experiments:
Type in all cases: functional
Staphylococcus aureus = test: Antimicrobial activity against Staphylococcus aureus 26003 after 24 hrs by agar dilution method; settings: Staphylococcus aureus, 26003, 24 h
Streptococcus pneumoniae = test: Antimicrobial activity against Streptococcus pneumoniae 31002 after 24 hrs by agar dilution method; settings: Streptococcus pneumoniae, 31002, 24 h
[1] = Antimicrobial activity against Streptomyces albus 260101 after 24 hrs by agar dilution method; settings: Streptomyces albus, 260101, 24 h
Shigella boydii = test: Antimicrobial activity against Shigella boydii 51313 after 24 hrs by agar dilution method; settings: Shigella boydii, 51313, 24 h
Shigella flexneri = test: Antimicrobial activity against Shigella flexneri 92475 after 24 hrs by agar dilution method; settings: Shigella flexneri, 92475, 24 h

MIC (Staphylococcus aureus) | MIC (Streptococcus pneumoniae) | MIC [1] | MIC (Shigella boydii) | MIC (Shigella flexneri) | Compound
0.39 µg/mL (≈ 1.07 µM) | 0.195 µg/mL (≈ 0.537 µM) | 0.39 µg/mL (≈ 1.07 µM) | > 6.25 µg/mL | > 6.25 µg/mL | CCCC[C@H](CN(O)C=O)C(=O)N1COC[C@H]1C(=O)Nc1ccccc1
0.78 µg/mL (≈ 2.07 µM) | 0.195 µg/mL (≈ 0.517 µM) | 0.78 µg/mL (≈ 2.07 µM) | > 6.25 µg/mL | > 6.25 µg/mL | CCCC[C@H](CN(O)C=O)C(=O)N1COC[C@H]1C(=O)Nc1ccc(C)cc1
0.39 µg/mL (≈ 1.02 µM) | 0.195 µg/mL (≈ 0.511 µM) | 0.39 µg/mL (≈ 1.02 µM) | > 6.25 µg/mL | > 6.25 µg/mL | CCCC[C@H](CN(O)C=O)C(=O)N1COC[C@H]1C(=O)Nc1ccc(F)cc1
0.39 µg/mL (≈ 0.976 µM) | 0.195 µg/mL (≈ 0.488 µM) | 0.39 µg/mL (≈ 0.976 µM) | > 6.25 µg/mL | > 6.25 µg/mL | CCCC[C@H](CN(O)C=O)C(=O)N1COC[C@H]1C(=O)Nc1c(F)cccc1F
0.39 µg/mL (≈ 0.991 µM) | 0.195 µg/mL (≈ 0.496 µM) | 0.78 µg/mL (≈ 1.98 µM) | > 6.25 µg/mL | > 6.25 µg/mL | CCCC[C@H](CN(O)C=O)C(=O)N1COC[C@H]1C(=O)Nc1ccc(OC)cc1
0.78 µg/mL (≈ 1.67 µM) | 0.098 µg/mL (≈ 0.21 µM) | 0.78 µg/mL (≈ 1.67 µM) | > 6.25 µg/mL | > 6.25 µg/mL | CCCC[C@H](CN(O)C=O)C(=O)N1COC[C@H]1C(=O)Nc1ccc(N2CCOCC2)c(F)c1
0.39 µg/mL (≈ 0.808 µM) | 0.098 µg/mL (≈ 0.203 µM) | 0.39 µg/mL (≈ 0.808 µM) | 6.25 µg/mL (≈ 12.9 µM) | 6.25 µg/mL (≈ 12.9 µM) | CCCC[C@H](CN(O)C=O)C(=O)N1COC[C@H]1C(=O)Nc1ccc(N2CCOCC2)c(Cl)c1
1.56 µg/mL (≈ 3.48 µM) | 0.39 µg/mL (≈ 0.87 µM) | 0.78 µg/mL (≈ 1.74 µM) | 6.25 µg/mL (≈ 13.9 µM) | > 6.25 µg/mL | CCCC[C@H](CN(O)C=O)C(=O)N1COC[C@H]1C(=O)Nc1ccc(N2CCOCC2)cc1
0.78 µg/mL (≈ 2.04 µM) | 0.098 µg/mL (≈ 0.256 µM) | 0.39 µg/mL (≈ 1.02 µM) | 3.13 µg/mL (≈ 8.19 µM) | 3.13 µg/mL (≈ 8.19 µM) | CCCC[C@H](CN(O)C=O)C(=O)N1COC[C@H]1C(=O)Nc1ccc(F)cn1
1.56 µg/mL (≈ 3.99 µM) | 0.195 µg/mL (≈ 0.498 µM) | 1.56 µg/mL (≈ 3.99 µM) | > 6.25 µg/mL | > 6.25 µg/mL | CCCC[C@H](CN(O)C=O)C(=O)N1COC[C@H]1C(=O)N[C@@H](C)c1ccccc1
0.78 µg/mL (≈ 2.07 µM) | 0.78 µg/mL (≈ 2.07 µM) | 1.56 µg/mL (≈ 4.13 µM) | > 6.25 µg/mL | > 6.25 µg/mL | CCCC[C@H](CN(O)C=O)C(=O)N1COC[C@H]1C(=O)NCc1ccccc1
1.56 µg/mL (≈ 3.99 µM) | 0.098 µg/mL (≈ 0.25 µM) | 0.78 µg/mL (≈ 1.99 µM) | > 6.25 µg/mL | > 6.25 µg/mL | CCCC[C@H](CN(O)C=O)C(=O)N1CO[C@H](C)[C@H]1C(=O)Nc1ccc(C)cc1
1.56 µg/mL (≈ 3.95 µM) | 0.195 µg/mL (≈ 0.493 µM) | 0.78 µg/mL (≈ 1.97 µM) | 3.13 µg/mL (≈ 7.92 µM) | > 6.25 µg/mL | CCCC[C@H](CN(O)C=O)C(=O)N1CO[C@H](C)[C@H]1C(=O)Nc1ccc(F)cc1
0.78 µg/mL (≈ 1.62 µM) | 0.195 µg/mL (≈ 0.406 µM) | 1.56 µg/mL (≈ 3.25 µM) | > 6.25 µg/mL | > 6.25 µg/mL | CCCC[C@H](CN(O)C=O)C(=O)N1CO[C@H](C)[C@H]1C(=O)Nc1ccc(N2CCOCC2)c(F)c1
0.78 µg/mL (≈ 1.57 µM) | 0.098 µg/mL (≈ 0.197 µM) | 0.39 µg/mL (≈ 0.785 µM) | > 6.25 µg/mL | > 6.25 µg/mL | CCCC[C@H](CN(O)C=O)C(=O)N1CO[C@H](C)[C@H]1C(=O)Nc1ccc(N2CCOCC2)c(Cl)c1
1.56 µg/mL (≈ 3.94 µM) | 0.39 µg/mL (≈ 0.984 µM) | 0.39 µg/mL (≈ 0.984 µM) | 3.13 µg/mL (≈ 7.9 µM) | > 6.25 µg/mL | CCCC[C@H](CN(O)C=O)C(=O)N1CO[C@H](C)[C@H]1C(=O)Nc1ccc(F)cn1
0.78 µg/mL (≈ 1.96 µM) | 0.195 µg/mL (≈ 0.489 µM) | 0.78 µg/mL (≈ 1.96 µM) | 3.13 µg/mL (≈ 7.86 µM) | > 6.25 µg/mL | CCCC[C@H](CN(O)C=O)C(=O)N1COC[C@H]1C(=O)Nc1ccc(F)c[n+]1[O-]
1.56 µg/mL (≈ 3.78 µM) | 0.195 µg/mL (≈ 0.473 µM) | 0.78 µg/mL (≈ 1.89 µM) | > 6.25 µg/mL | > 6.25 µg/mL | CCCC[C@H](CN(O)C=O)C(=O)N1CO[C@H](C)[C@H]1C(=O)Nc1ccc(F)c[n+]1[O-]
0.39 µg/mL (≈ 0.984 µM) | 0.195 µg/mL (≈ 0.492 µM) | 0.39 µg/mL (≈ 0.984 µM) | 6.25 µg/mL (≈ 15.8 µM) | > 6.25 µg/mL | CCCC[C@H](CN(O)C=O)C(=O)N1CCC[C@H]1C(=O)Nc1ccc(F)c[n+]1[O-]
